Assay results taken from publication PMC7241567 (Journal of Enzyme Inhibition and Medicinal Chemistry, 2020).
pIC50: −log10 of the molar value.

Legend:
Assay type in all cases: biochemical
Aurora A = biological target: T1, Aurora A (Homo sapiens, UniProt O14965); assay: Reaction Biology Kinase HotSpot radiometric kinase assay
T1 construct: purchased Reaction Biology Corp. (Kinase HotSpot service)

c-Src = biological target: T2, c-Src (Homo sapiens, UniProt P12931); assay: as above
T2 construct: purchased Reaction Biology Corp. (Kinase HotSpot service)

FLT3 (F594_R595 ins R) = biological target: T3, FLT3 (F594_R595 ins R) (Homo sapiens, UniProt P36888, INS594R); assay: Enzymatic activity against FLT3 mutants
T3 construct: purchased Reaction Biology Corp. (Kinase HotSpot service)

AKT1 = biological target: T4, AKT1 (Homo sapiens, UniProt P31749); assay: Reaction Biology Kinase HotSpot radiometric kinase assay
T4 construct: purchased Reaction Biology Corp. (Kinase HotSpot service)

KDR/VEGFR2 = biological target: T5, KDR/VEGFR2 (Homo sapiens, UniProt P35968); assay: as above
T5 construct: purchased Reaction Biology Corp. (Kinase HotSpot service)

ALK = biological target: T6, ALK (Homo sapiens, UniProt Q9UM73); assay: as above
T6 construct: purchased Reaction Biology Corp. (Kinase HotSpot service)

JAK3 = biological target: T7, JAK3 (Homo sapiens, UniProt P52333); assay: as above
T7 construct: purchased Reaction Biology Corp. (Kinase HotSpot service)

[1] = test system: other kinases including FMS and cKit; assay: Kinase panel screening, overall selectivity; settings: 36 different kinases, single dose of 10 µM
Protocol: Next, we investigated kinase panel screening of 7d and 7b over 36 different kinases at a single dose of 10 µM (Figure 5). […] High selectivity over cKit might be an opportunity to avoid myelosuppression toxicity, which was reported from a dual FLT3/cKit inhibitor[19–22]. It is a valuable result to secure such a kinase selectivity profile considering the similarities of the same type III receptor tyrosine kinase (FMS, cKit and FLT3).
3. Evaluation of IC50 and Selected Kinase Profiling
We used Reaction Biology Corp. Kinase HotSpotSM service (www.reactionbiology.com) for IC50 determination of all compounds and kinase profile. Assay protocol: In a final reaction volume of 25 μL, Peptide substrate, [[…]], 5 µM, ATP 10 µM, FLT3(h) (5-10 […]
mU) is incubated with 25 mM Tris pH 7.5, 0.02 mM EGTA, 0.66 mg/mL myelin basic protein, 10 mM Mg Acetate and [γ-33P-ATP] (specific activity approx. 500 cpm/pmol, concentration as required). The reaction is initiated by the addition of the Mg-ATP mix. After incubation for 40 minutes at room temperature, the reaction is stopped by the addition of 5 μL of a 3% phosphoric acid solution. 10 μL of the reaction is then spotted onto a P30 filtermat and washed three times for 5 minutes in 75 mM phosphoric acid and once in methanol prior to drying and […]

BRAF (V599E) = biological target: T8, BRAF (V599E) (Homo sapiens, UniProt P15056, V600E); assay: Reaction Biology Kinase HotSpot radiometric kinase assay
T8 construct: purchased Reaction Biology Corp. (Kinase HotSpot service)

LYN = biological target: T9, LYN (Homo sapiens, UniProt P07948); assay: as above
T9 construct: purchased Reaction Biology Corp. (Kinase HotSpot service)

FLT3 (F594_R595 ins EY) = FLT3 (F594_R595 ins EY) (Homo sapiens, UniProt P36888); assay: Enzymatic activity against FLT3 mutants
CAMKK1 = biological target: T10, CAMKK1 (Homo sapiens, UniProt Q8N5S9); assay: Reaction Biology Kinase HotSpot radiometric kinase assay
T10 construct: purchased Reaction Biology Corp. (Kinase HotSpot service)

AXL = biological target: T11, AXL (Homo sapiens, UniProt P30530); assay: as above
T11 construct: purchased Reaction Biology Corp. (Kinase HotSpot service)

BTK = biological target: T12, BTK (Homo sapiens, UniProt Q06187); assay: as above
T12 construct: purchased Reaction Biology Corp. (Kinase HotSpot service)

RIPK3 = biological target: T13, RIPK3 (Homo sapiens, UniProt Q9Y572); assay: as above; settings: 10 µM
T13 construct: purchased Reaction Biology Corp. (Kinase HotSpot service)

MEK1 = biological target: T14, MEK1 (Homo sapiens, UniProt Q02750); assay: as above
T14 construct: purchased Reaction Biology Corp. (Kinase HotSpot service)

ERK1 = biological target: T15, ERK1 (Homo sapiens, UniProt P27361); assay: as above; settings: 10 µM
T15 construct: purchased Reaction Biology Corp. (Kinase HotSpot service)

FLT1/VEGFR1 = biological target: T16, FLT1/VEGFR1 (Homo sapiens, UniProt P17948); assay: as above
T16 construct: purchased Reaction Biology Corp. (Kinase HotSpot service)

P38a/MAPK14 = P38a/MAPK14 (Homo sapiens, UniProt Q16539); assay: as above
EGFR = biological target: T17, EGFR (Homo sapiens, UniProt P00533); assay: as above
T17 construct: purchased Reaction Biology Corp. (Kinase HotSpot service)

FMS = biological target: T18, FMS (Homo sapiens, UniProt P07333); assay: as above
T18 construct: purchased Reaction Biology Corp. (Kinase HotSpot service)

ROS/ROS1 = biological target: T19, ROS/ROS1 (Homo sapiens, UniProt P08922); assay: as above
T19 construct: purchased Reaction Biology Corp. (Kinase HotSpot service)

PLK1 = biological target: T20, PLK1 (Homo sapiens, UniProt P53350); assay: as above
T20 construct: purchased Reaction Biology Corp. (Kinase HotSpot service)

c-Kit = biological target: T21, c-Kit (Homo sapiens, UniProt P10721); assay: as above
T21 construct: purchased Reaction Biology Corp. (Kinase HotSpot service)

FYN = biological target: T22, FYN (Homo sapiens, UniProt P06241); assay: as above
T22 construct: purchased Reaction Biology Corp. (Kinase HotSpot service)
T22 sequence (P06241 whole entry): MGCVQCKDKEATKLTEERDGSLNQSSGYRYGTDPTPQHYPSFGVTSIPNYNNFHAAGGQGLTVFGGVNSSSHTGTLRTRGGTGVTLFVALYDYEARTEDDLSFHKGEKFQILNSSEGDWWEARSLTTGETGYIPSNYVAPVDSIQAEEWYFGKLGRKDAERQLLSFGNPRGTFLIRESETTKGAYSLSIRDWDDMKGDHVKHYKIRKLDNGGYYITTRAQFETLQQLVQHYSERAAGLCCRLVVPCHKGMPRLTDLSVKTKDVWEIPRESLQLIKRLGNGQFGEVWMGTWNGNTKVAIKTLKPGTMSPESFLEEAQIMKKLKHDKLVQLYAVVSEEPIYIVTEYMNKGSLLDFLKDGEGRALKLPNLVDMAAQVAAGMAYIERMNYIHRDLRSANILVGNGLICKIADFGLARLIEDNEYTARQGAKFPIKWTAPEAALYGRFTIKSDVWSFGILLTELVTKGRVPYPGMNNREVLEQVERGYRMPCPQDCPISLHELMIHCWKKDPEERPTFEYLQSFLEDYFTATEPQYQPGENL

Chain of P38a/MAPK14 (Q16539 whole entry): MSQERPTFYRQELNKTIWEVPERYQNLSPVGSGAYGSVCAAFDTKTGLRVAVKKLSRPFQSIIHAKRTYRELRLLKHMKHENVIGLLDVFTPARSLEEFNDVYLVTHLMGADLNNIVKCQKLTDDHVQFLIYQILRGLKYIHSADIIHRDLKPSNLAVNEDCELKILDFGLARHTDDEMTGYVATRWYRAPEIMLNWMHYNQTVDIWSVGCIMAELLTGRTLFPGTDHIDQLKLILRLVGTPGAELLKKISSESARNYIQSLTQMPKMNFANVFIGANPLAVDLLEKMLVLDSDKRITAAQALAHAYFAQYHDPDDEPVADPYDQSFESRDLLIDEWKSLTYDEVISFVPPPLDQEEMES
T17 sequence (P00533 25-1210): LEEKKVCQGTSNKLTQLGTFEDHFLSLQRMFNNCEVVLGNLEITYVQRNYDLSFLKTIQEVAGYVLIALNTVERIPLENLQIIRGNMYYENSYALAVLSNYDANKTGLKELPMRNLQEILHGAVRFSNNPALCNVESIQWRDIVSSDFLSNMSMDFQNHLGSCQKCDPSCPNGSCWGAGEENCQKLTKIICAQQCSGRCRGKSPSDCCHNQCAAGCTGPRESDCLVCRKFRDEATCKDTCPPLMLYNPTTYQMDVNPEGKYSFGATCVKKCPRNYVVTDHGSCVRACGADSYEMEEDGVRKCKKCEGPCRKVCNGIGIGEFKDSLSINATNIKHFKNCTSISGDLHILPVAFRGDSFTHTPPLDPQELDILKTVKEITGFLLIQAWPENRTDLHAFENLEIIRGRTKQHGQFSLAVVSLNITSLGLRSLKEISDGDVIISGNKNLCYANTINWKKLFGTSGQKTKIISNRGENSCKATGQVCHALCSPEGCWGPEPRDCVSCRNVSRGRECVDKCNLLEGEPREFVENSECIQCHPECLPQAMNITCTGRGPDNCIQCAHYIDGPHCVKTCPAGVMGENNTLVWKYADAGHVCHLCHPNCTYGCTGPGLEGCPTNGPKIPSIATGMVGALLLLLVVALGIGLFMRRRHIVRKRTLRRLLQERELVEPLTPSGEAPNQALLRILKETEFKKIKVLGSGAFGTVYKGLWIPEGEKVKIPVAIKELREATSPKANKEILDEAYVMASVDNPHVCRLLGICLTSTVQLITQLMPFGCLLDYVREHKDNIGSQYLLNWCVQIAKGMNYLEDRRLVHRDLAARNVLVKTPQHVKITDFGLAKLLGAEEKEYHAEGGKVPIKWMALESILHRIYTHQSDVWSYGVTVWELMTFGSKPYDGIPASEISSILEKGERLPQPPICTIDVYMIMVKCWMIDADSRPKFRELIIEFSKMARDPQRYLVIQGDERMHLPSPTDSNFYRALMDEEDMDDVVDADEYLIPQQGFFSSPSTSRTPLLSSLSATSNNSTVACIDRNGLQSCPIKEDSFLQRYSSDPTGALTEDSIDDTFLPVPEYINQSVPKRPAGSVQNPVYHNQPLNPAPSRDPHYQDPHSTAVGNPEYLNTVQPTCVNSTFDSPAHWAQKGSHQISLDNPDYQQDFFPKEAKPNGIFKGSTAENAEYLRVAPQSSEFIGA
T11 sequence (P30530 26-894): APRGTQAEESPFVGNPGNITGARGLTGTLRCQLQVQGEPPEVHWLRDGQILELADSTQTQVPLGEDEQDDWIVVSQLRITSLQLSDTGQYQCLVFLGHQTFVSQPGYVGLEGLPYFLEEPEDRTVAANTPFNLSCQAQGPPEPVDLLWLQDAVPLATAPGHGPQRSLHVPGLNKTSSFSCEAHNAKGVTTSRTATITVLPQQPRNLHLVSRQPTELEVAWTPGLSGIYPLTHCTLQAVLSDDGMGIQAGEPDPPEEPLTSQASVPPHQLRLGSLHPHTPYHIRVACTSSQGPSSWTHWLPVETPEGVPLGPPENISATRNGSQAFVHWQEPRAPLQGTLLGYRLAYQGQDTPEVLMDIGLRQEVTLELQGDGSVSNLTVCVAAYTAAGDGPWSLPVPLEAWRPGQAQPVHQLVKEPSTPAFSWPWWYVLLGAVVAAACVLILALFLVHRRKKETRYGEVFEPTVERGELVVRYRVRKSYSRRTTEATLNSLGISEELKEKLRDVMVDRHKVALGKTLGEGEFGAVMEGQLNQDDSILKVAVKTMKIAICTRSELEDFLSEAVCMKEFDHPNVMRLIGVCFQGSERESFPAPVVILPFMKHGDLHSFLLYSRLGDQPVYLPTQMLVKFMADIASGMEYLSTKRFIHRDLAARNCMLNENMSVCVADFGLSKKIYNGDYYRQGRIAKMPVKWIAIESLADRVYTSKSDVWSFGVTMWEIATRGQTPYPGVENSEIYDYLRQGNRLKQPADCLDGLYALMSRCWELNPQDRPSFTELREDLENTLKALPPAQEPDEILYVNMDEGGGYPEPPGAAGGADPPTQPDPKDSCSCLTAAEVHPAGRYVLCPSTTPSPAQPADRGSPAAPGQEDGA
T14 sequence (Q02750 whole entry): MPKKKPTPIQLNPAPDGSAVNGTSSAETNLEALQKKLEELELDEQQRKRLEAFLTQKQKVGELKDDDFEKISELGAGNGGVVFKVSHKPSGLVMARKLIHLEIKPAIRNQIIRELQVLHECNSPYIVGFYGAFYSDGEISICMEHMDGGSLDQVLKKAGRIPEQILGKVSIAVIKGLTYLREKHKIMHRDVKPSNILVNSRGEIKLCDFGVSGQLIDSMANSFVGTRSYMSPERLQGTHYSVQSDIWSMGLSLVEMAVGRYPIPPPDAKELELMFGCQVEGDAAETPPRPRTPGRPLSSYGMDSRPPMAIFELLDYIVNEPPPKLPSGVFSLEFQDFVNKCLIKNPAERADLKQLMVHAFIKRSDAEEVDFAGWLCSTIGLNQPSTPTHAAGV
Chain of FLT3 (F594_R595 ins EY) (P36888 610-943 limits assumed): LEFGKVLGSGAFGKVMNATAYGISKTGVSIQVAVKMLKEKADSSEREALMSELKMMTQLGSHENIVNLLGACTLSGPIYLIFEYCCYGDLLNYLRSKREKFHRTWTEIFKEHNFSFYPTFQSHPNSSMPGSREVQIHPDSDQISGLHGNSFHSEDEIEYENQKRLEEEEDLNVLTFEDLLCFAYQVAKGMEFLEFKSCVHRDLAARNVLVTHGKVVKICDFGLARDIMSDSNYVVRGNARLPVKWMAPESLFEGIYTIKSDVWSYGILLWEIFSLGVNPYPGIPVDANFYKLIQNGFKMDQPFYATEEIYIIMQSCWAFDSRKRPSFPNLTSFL
T1 sequence (O14965 whole entry): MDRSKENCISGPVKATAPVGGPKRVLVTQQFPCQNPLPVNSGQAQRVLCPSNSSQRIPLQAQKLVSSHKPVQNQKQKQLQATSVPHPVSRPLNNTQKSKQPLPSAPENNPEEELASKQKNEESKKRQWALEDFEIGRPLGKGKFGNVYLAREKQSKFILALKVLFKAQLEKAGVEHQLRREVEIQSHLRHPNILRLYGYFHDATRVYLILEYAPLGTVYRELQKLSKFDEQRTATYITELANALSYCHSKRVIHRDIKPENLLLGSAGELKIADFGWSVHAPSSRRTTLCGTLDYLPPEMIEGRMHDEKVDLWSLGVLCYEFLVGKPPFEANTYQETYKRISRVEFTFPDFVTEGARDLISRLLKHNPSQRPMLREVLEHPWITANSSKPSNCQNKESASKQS
T15 sequence (P27361 whole entry): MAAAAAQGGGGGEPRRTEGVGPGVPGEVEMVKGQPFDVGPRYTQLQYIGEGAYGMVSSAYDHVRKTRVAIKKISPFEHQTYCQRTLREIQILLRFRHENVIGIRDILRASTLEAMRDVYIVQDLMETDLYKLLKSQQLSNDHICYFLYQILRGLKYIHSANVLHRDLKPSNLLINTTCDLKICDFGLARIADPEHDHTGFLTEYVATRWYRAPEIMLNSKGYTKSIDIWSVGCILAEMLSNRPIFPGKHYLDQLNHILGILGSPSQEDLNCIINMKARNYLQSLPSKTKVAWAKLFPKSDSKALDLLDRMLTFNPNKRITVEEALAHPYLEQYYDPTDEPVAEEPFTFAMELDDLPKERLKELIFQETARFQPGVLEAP
T4 sequence (P31749 whole entry): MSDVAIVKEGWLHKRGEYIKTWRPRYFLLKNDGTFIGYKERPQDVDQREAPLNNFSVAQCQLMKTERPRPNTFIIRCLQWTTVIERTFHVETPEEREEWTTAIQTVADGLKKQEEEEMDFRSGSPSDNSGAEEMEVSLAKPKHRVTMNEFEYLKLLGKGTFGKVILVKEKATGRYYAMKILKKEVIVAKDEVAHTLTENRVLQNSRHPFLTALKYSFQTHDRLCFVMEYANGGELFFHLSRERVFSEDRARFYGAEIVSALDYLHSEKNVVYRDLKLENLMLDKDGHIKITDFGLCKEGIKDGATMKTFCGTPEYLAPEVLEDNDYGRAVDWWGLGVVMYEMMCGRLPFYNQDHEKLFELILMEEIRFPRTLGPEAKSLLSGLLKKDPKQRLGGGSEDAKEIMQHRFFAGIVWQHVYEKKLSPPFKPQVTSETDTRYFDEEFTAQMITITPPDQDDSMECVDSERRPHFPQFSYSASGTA

## Cc1oncc1C(=O)Nc1ccc2cnc(-c3cc(N4CCN(C)CC4)cc(C(F)(F)F)c3)nc2c1 [Compound 7d, 5-methyl-N-(2-(3-(4-methylpiperazin-1-yl)-5-(trifluoromethyl)phenyl)quinazolin-7-yl)isoxazole-4-carboxamide]
Aurora A
  inhibition at 10 µM: 20.1%
c-Src
  inhibition at 10 µM: 14.6%
FLT3 (F594_R595 ins R)
  pIC50: 6.28
AKT1
  inhibition at 10 µM: 5.48%
KDR/VEGFR2
  inhibition at 10 µM: 16.8%
ALK
  inhibition at 10 µM: 17%
JAK3
  inhibition at 10 µM: 0.8%
[1]
  activity on other kinases in panel (in words): almost no activity
BRAF (V599E)
  inhibition at 10 µM: 5.19%
LYN
  inhibition at 10 µM: 20.5%
FLT3 (F594_R595 ins EY)
  pIC50: 6.31
CAMKK1
  inhibition at 10 µM: 0%
AXL
  inhibition at 10 µM: 21.2%
BTK
  inhibition at 10 µM: 17.5%
RIPK3
  inhibition at 10 µM: 12.8%
MEK1
  inhibition at 10 µM: 0%
ERK1
  inhibition at 10 µM: 15%
FLT1/VEGFR1
  inhibition at 10 µM: 5.23%
P38a/MAPK14
  inhibition at 10 µM: 0%
EGFR
  inhibition at 10 µM: 0%
FMS
  inhibition at 10 µM: 5.49%
ROS/ROS1
  inhibition at 10 µM: 14.4%
PLK1
  inhibition at 10 µM: 0%
c-Kit
  inhibition at 10 µM: 0%
FYN
  inhibition at 10 µM: 19%
